# Columns and labels:
# [1] = test system: PC-12 cells; assay: MTT cytotoxicity assay in PC-12 cells; assay type: cell-based; conditions: for IC50: MTT assay for 48 h
# Protocol: (§1) Cytotoxicity Assays: Cell viability was measured by using the MTT method (3-[4,5-dimethylthiazol-2-yl]-2,5-diphenyl tetrazolium bromide) as described previously (Wu, A. G. et al. Int J Mol Sci 2013, 14:22618-22641). Absorbance (OD) of cell samples was obtained by spectrophotometer at 570 nm. The percentage of cell viability was calculated by using the formula: cell viability (%)=cells numbertreated/cells numberDMSO control×100. All MTT data were calculated from three independent experiments.
# as §1, with “experiments. Cell viability was also measured by flow cytometry using the Annexin V staining kit (BD Biosciences, San Jose, Calif., USA).” for “experiments.”
# Cytotoxicity Assays and Flow Cytometry: Cell viability was measured by using the MTT method (3-[4,5-dimethylthiazol-2-yl]-2,5-diphenyl tetrazolium bromide) as described previously (Wu, A. G. et al. Int J Mol Sci 2013, 14:22618-22641). Absorbance (OD) of cell samples was obtained by spectrophotometer at 570 nm. The percentage of cell viability was calculated by using the formula: cell viability (%)=cells numbertreated/cells numberDMSO control×100. All MTT data were calculated from three independent experiments. Cell viability was also measured by flow cytometry using the Annexin V staining kit (BD Biosciences, San Jose, Calif., USA). In brief, PC-12 cells treated with hederagenin and α-hederin were analyzed by multiparametric flow cytometry using FITC-Annexin V and/or propidium iodide staining (BD Biosciences, San Jose, Calif., USA) by following manufacturer's instructions. Flow cytometry was then carried out using a FACSCalibur flow cytometer (BD Biosciences). […]
# [2] = UHPLC/MS/MS measurement of hederagenin and α-hederin level in mice brain tissues; assay type: in vivo
# Protocol: Whole mice brains were collected and weighted after sacrificed. Each brain tissue was put into 500 μl of NaCl solution and ultra-sonicated for 40 s to give the whole tissue homogenate. Each tube of homogenate was set to a final volume of 800 μl. […] The supernatant was collected and remaining precipitate was re-extracted with 200 μl of methanol. The collected supernatant was then combined and dried by using dry nitrogen blowing instrument. The residue was reconstituted with 200 μl of 30% acetonitrile, and then 10 μl of the aliquot was injected into the LC-MS/MS system (Su, F. L. et al., Chromatographia 2009, 69:207-213). […] The measurement of dopamine (DA), hederagenin and α-hederin level in mice brain tissues: Internal standard (IS, DHBA), DA, hederagenin and α-hederin level in the mouse brain, were quantified using UHPLC/MS/MS system which includes Agilent 1290 Infinity UHPLC, and Agilent 6460 Triple Quadrupole, equipped with an electrospray ionization interface used to generate positive ions for the determination of DA; negative ion mode for the measurement of hederagenin and α-hederin in mouse brains. The compounds in plasma samples were analyzed by using the Agilent Zorbax Eclipse Plus C-18 column with a particle size of 1.8 μm (flow rate: 0.35 mL/min). […] Data were analyzed by using Agilent MassHunter Workstation software B.01.03. […]
# [3] = test system: EGFP-HTT 74 (mutant huntingtin); assay: Mutant huntingtin (EGFP-HTT 74) clearance and inclusion formation in ATG7+/+ and ATG7−/− MEFs; assay type: cell-based, mouse; conditions: 24 h; for percentage of cells with fluorescence mutant huntingtin inclusion formation: ATG7−/− compared with ATG7+/+ MEFs after treatment; for inclusion clearance of overexpressed mutant huntingtin in ATG7+/+ MEFs: EGFP-HTT 74 transfected ATG7+/+ MEFs
# Source text: Protein extraction and Western blots: Cells were harvested by RIPA lysis buffer (Cell Signaling Technologies, Beverly, Mass., USA), and with the final protein concentrations measured by using Bradford reagent (Bio-Rad, Hercules, Calif., USA). After electrophoresis for protein band separation, proteins were transferred to the nitrocellulose membrane which was blocked with 5% non-fat dried milk immediately after protein transfer. Corresponding primary antibodies, followed by the addition of HRP-conjugated secondary antibodies, were incubated with the protein membrane with constant shaking. Visualization of protein band pattern was performed by using the ECL Western Blotting Detection Reagents (Invitrogen, Paisley, Scotland). Band intensities were quantified by using the software, ImageJ (ImageJ 1.46r; National Institutes of Health, Bethesda, Md., USA).
# Cells were then treated with either hederagenin or α-hederin for a further 24 h to determine the protein level of mutant huntingtin by Western blot analysis using an antibody against GFP (Ravikumar, B. et al., Nat Genet 2004, 36:585-595). On the other hand, ATG7 wild-type and ATG7-deficient MEF cells transfected with EGFP-HTT 74 were analyzed for the formation of huntingtin inclusion after 24 h of hederagenin or α-hederin treatment. Percentages of cells with cytoplasmic GFP-huntingtin (GFP-HTT74) inclusion formation were counted by the number of cells with GFP inclusions over the total number of GFP-positive cells in the same field under fluorescent microscopic analysis. More than 200 GFP-positive cells were scored for each treatment.
SMILES,IC50 ([1]; Rattus norvegicus),"level detected in the brain tissue ([2]; C57BL/6, mouse, in vivo, po, 80 mg/kg)",percentage of cells with fluorescence mutant huntingtin inclusion formation [3],inclusion clearance of overexpressed mutant huntingtin in ATG7+/+ MEFs [3],IC50 [1],"cytotoxicity at most effective concentration ([1]; hederagenin 80 μM, α-hederin 24 μM)","level detected in the brain tissue ([2]; mice with 80 mg/kg HH-EF′ treatment, oral)"
CC1(C)CC[C@]2(C(=O)O)CC[C@]3(C)C(=CC[C@@H]4[C@@]5(C)CC[C@H](O)[C@@](C)(CO)[C@@H]5CC[C@]43C)[C@@H]2C1 [hederagenin],> 100 µM,3.39 nM,higher percentage of cells with fluorescence mutant huntingtin inclusion formation was found in ATG−/− MEFs,facilitate the inclusion clearance of overexpressed mutant huntingtin,,,
C[C@@H]1O[C@@H](O[C@H]2[C@H](O[C@H]3CC[C@@]4(C)[C@@H](CC[C@]5(C)[C@@H]4CC=C4[C@@H]6CC(C)(C)CC[C@]6(C(=O)O)CC[C@]45C)[C@]3(C)CO)OC[C@H](O)[C@@H]2O)[C@H](O)[C@H](O)[C@H]1O [α-hederin],,,higher percentage of cells with fluorescence mutant huntingtin inclusion formation was found in ATG−/− MEFs,facilitate the inclusion clearance of overexpressed mutant huntingtin,26.5 µM,lack of obvious cytotoxicity,2.98 nM
